Here are results for 1 molecule from patent publication US20230242956A1, “POLYPHOSPHATE KINASE MUTANT, ENGINEERED STRAIN AND APPLICATION THEREOF” (ZHEJIANG UNIVERSITY OF TECHNOLOGY, priority 2022, published 2023).

This test has as its target T1, Cytophaga hutchinsonii polyphosphate kinase (ChPPK) mutant A79G/S106C/I108F/L285P (parent SEQ ID NO: 2) (Cytophaga hutchinsonii, UniProt A0A6N4SMB5, A79G/I108F/L285P/S106C).
T1 sequence (A0A6N4SMB5 with tags, fused parts or gaps A79G/S106C/I108F/L285P): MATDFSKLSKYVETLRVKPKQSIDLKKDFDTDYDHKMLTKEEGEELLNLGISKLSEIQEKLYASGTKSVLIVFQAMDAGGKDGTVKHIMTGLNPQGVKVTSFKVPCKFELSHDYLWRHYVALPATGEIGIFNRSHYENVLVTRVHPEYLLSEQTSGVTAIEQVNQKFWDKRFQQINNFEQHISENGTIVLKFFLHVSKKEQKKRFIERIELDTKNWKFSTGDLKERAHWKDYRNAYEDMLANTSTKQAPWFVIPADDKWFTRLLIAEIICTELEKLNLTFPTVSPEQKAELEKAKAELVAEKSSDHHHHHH
The test is described as follows: Kinetic parameters of mutant ChPPK/A79G/S106C/I108F/L285P (pure enzyme, pseudo-one-substrate kinetic model, ATP by HPLC). The following applies: mutant versus wild-type; substrate AMP or PPA. The test is classed as biochemical. The protocol:
(2) Pure enzyme: 5 mL of the crude enzyme solution was diluted with 40 mL of potassium phosphate buffer (20 mM, pH 7.2), and then applied to a HisTrap HP purification column of GE Healthcare (10 mL column, pre-washed with a pH 7.2, 20 mM potassium phosphate buffer containing 500 mM NaCl). The resulting purification column was eluted with 100 mL of washing buffer (a pH7.2, 20 mM potassium phosphate buffer containing 500 mM sodium chloride and 50 mM imidazole) at a rate of 0.5 mL/min to remove the absorbed protein impurities, and then eluted with an elution buffer (a pH7.2, 20 mM potassium phosphate buffer containing 500 mM sodium chloride and 50 mM imidazole) at a speed of 0.5 mL/min to collect an elution solution containing the target protein. Then the elution solution containing the target protein was dialyzed in a dialysis bag (the MWCO of the dialysis bag was 14 KDa) with a pH7.2 of 20 mM potassium phosphate buffer for 48h, and the retentate was taken as pure enzyme. The concentration of the pure enzyme was determined by Beyotime BCA Protein Assay Kit(P0012), and the amount of the pure enzyme used in the following examples was calculated by protein content.
0.4 mg of the crude enzyme solution prepared by the method in Example 2 or 0.05 mg of the pure enzyme, polyphosphoric acid (PPA) at a final concentration of 1.6 g/L, adenosine phosphate (AMP) at a final concentration of 2.25 mM, and MgCl2 at a final concentration of 10 mM were added to 10 mL of 50 mM potassium phosphate buffer (pH 7.5). The reaction solution was incubated at 37° C. for 5 min, and then 10 mL of 0.2 M phosphoric acid solution was added to terminate the reaction. The ATP content in the solution was determined by HPLC method. […]
The wild-type Ecoli.BL21(DE3)-ChPPK constructed by the method of Example 1 and the engineered strain Ecoli.BL21(DE3)-ChPPK/A79G/S106C/I108F/L285P constructed by the method of Example 6 were used to prepare pure enzymes by the method of Example 2. Km and Kcat were calculated by pseudo-one-substrate kinetic model. […]

With `Nc1ncnc2c1ncn2[C@@H]1O[C@H](COP(=O)(O)O)[C@@H](O)[C@H]1O` [AMP, adenosine phosphate], the “Km, wild-type compared with mutant (in words)” value was “similar”; the “catalytic efficiency (kcat/Km) of the mutant, fold higher than wild-type ChPPK” value is reported as 16 fold; the “turnover number (kcat value), mutant compared with wild-type (in words)” value is “increased”.
